For one data set, the system named is histamine-induced asthma. Kind of data set: Antiasthmatic effect on histamine-induced asthma in guinea pigs (latency period). In kind it is in vivo. To be noted: 1 mg/kg oral gavage, sixty minutes after administration; histamine hydrochloride spray; no asthma within 8 minutes counted as 8 minutes; X±s, n = 5.
Data set [1] relates to isolated ileal smooth muscle. The experiment in a line: Muscle tone of isolated ileal smooth muscle of guinea pigs, compound alone. The conditions noted are these: Table 3, no histamine, X±s, n = 8.
A short description of data set [2]: Muscle tone of isolated ileal smooth muscle of guinea pigs contracted with histamine. To be noted: Table 4; 3 minutes after adding 0.05 mL compound at maximum histamine contraction; x±s, n = 8.
The next data set concerns histamine. The data set is described as above. The conditions noted are these: Table 4; relative to tone after adding histamine; x±s, n = 8; 3 min.
Data set [3] in a line: Accelerated stability test. It is filed as physicochemical. The conditions noted are these: 40°C ± 2°C, relative humidity 75% ± 5%.
The nature of data set [4]: Solubility in water, methanol and isopropanol.
Protocol: The solubility in water, methanol, and isopropanol of the compounds of the present disclosure and the comparative compounds were measured separately.

In brackets after ≈: the same amount, converted by molar mass.

With `O=P(O)(O)OCCCCCN1CCC(=C2c3ccc(Cl)cc3CCc3cccnc32)CC1` [Compound IV-7], in the data set with histamine-induced asthma, the “Post-administration latency period” value turned out to be 367.32 ± 53.01 s. The “Smooth muscle tone (g) After administration” value stood at 1.16 ± 0.27 g in data set [1] (5 minutes after adding the drug) and 1.15 ± 0.23 g in data set [2]. Also, the “Antispasmodic percentage (%)” value in data set [1] (relative to tone before adding compound, 5 min) is 31.76±18.66%; with histamine it was 66.76±19.32%. For the same molecule, the Content in data set [3] (Month 0) is given as 99.6%. Also, the Description entry in data set [3] (Month 0), in data set [3] (Month 1), in data set [3] (Month 2), in data set [3] (Month 3) and in data set [3] (Month 6) was “White powder” throughout. The Related substances was 0.03% in data set [3] (Month 0); 0.06% in data set [3] (Month 1); 0.09% in data set [3] (Month 2); 0.13% in data set [3] (Month 3); 0.28% in data set [3] (Month 6). Further, the remaining at 730 h in data set [3] (storage 75% relative humidity, Month 1, read-out: Content) turned out to be 99.6%. For the same molecule, in data set [3] (storage 75% relative humidity, Month 2, read-out: Content), the remaining at 1460 h turned out to be 99.5%. The remaining at 2190 h in data set [3] (storage 75% relative humidity, Month 3, read-out: Content) came out at 99.5%. Moreover, in data set [3] (storage 75% relative humidity, Month 6, read-out: Content), the remaining at 4380 h came to 99.3%. In addition, in data set [4] (in isopropanol), the “solubility Isopropanol” value was determined as 4 mg/mL (≈ 8.39 mM). For the same molecule, in data set [4] (in methanol), the “solubility Methanol” value came out at 27 mg/mL (≈ 56.6 mM). Moreover, the “solubility Water” value in data set [4] (in water) was 287 mg/mL (≈ 602 mM).

The values are drawn from patent EP4559923A1, “ANTIHISTAMINE COMPOUND, AND PREPARATION METHOD THEREFOR AND USE THEREOF” (HC Synthetic Pharmaceutical Co., Ltd., priority 2022, dated 2024).
